Reference: patent US20220372491A1, “TREATMENT OF RENAL CYSTIC DISEASE” (MONASH UNIVERSITY, priority 2019, published 2022)

Tests used:
Pkd1^Δ/Δ mice = assay: Oral MK2206 treatment of Pkd1^Δ/Δ mice (ADPKD model); assay type: in vivo, mouse
Method: (§1) MK2206 treatment of Inpp5e^Δ/+ and Inpp5e^Δ/Δ mice commenced at P9 and were performed daily up to P14 before sacrifice at P15.MK2206 treatment of Pkd1 litters commenced at P4 and were performed daily up to P10 before sacrifice at P11. MK2206 was delivered orally by pipette in a solution of 27 mg/ml MK2206.2HCI (S1078, Selleck Chemicals) in 30% Capsitol (Cydex) and 5% glucose (49163-100ML, Sigma-Aldrich). Mice were dosed with a volume to deliver MK2206 up to 75 mg/kg as indicated. Mouse body weights were recorded daily. Solutions were stored at 4 degrees for up to 2 weeks. Mice were culled via cervical dislocation or decapitation, as most appropriate for their age following ethical guidelines. Procedures were all conducted by ethically approved and trained personnel. Mice were measured for body weight, with ear tissue, urine and kidneys collected. Ear tissue and urine was stored at -20 degrees. Newborn and P4 kidneys were fixed whole in 4% PFA for 16 hrs at 4 degrees, while the kidney capsule membrane was removed from older mouse kidneys, with the kidney cut into halves and fixed in 10% NBF for 16 hrs at room temperature. Half the kidney samples were sent for histological processing and the other half were snap frozen and stored at -80 degrees until processed for RNA, alpha analysis and/or western blotting. Kidney tissues were paraffin imbedded and sectioned at 4 μm for most analysis with the exception of being sectioned at 10 μm for cilia analysis. Antigen retrieval was performed in Citrate buffer pH6 using Tefal pressure cooker or using a DAKO […] system as indicated. Antibody staining was performed as described elsewhere (Cottle et al., (2013) Cell reports, 3: 427-441), except triton x-100 was included in blocking buffers, and cover slips mounted using Prolong Gold (Invitrogen). Antibodies and stains are listed below. Imaging was using an Aperio brightfield and fluorescent scanners (MHP), Olympus Fluoview 500 (Biochemistry Imaging Suite), Nikon C2 or Leica SP8 confocal microscope (MMI). All quantifications with the exception of Nanostring analysis and Chi squared tests for analysis of mendelian ratios, were analyzed using the unpaired Student's t-test assuming unequal variance in Microsoft Excel and P≤0.05 values were considered significant. One or two tailed tests were selected as appropriate for hypothesis. Values presented are Mean±Standard Error of the Mean (S.E.M). 2K/BW % was calculated as the combined kidney weight over total body weight percentage. Albumin Creatinine Ratios (ACR) were calculated as μg Albumin over mg of Creatinine. Cyst identity was measured as a proportion of cyst epithelial area for each marker out of total sum of cyst epithelial areas of all markers (adjusted for marker co-localisation). Cystic index % is calculated as the proportion of cystic space occupied out of total kidney area in DBA-stained kidney longitudinal cross-sections. Cyst number reflects the average number of cysts counted per DBA-stained longitudinal kidney cross section. Cyst size is the average cross-sectional cyst size (mm^2) of cysts sampled from DBA-stained kidney longitudinal cross sections. Due to escape of Cre activity at the Aurka locus in cysts, unless otherwise indicated references to Inpp5e^Δ/Δ; Aurka^Δ/Δ immunostains and their quantifications reflect non-cystic regions throughout this study.

Inpp5e^Δ/Δ mice = assay: Oral MK2206 treatment of Inpp5e^Δ/Δ mice; assay type: in vivo, mouse
Method: as §1

mTOR = mTOR (Mus musculus, UniProt P26883+Q9JLN9); conditions: model not stated; cited from earlier work
[1] = daily P4 to P10, P11, dose dependent, up to 75 mg/kg
[2] = oral, daily from P9, sacrificed at P15, vs vehicle

Row | Structure (SMILES) | cyst number (Pkd1^Δ/Δ mice; [1]) | cyst size (Pkd1^Δ/Δ mice; [1]) | cystic index (Pkd1^Δ/Δ mice; [1]) | kidney to body weight ratio (Pkd1^Δ/Δ mice; [1]) | severity of PKD (Pkd1^Δ/Δ mice; daily P4 to P10, sacrifice at P11, up to 75 mg/kg) | % AKT pS473 high collecting duct cells (Inpp5e^Δ/Δ mice; cystic Inpp5e^Δ/Δ and control mice, Vehicle or MK2206) | acquisition of cysts (average cyst number per section) (Inpp5e^Δ/Δ mice; [2]) | ciliation (Inpp5e^Δ/Δ mice; [2]) | cyst size (Inpp5e^Δ/Δ mice; [2]) | cystic index (Inpp5e^Δ/Δ mice; [2]) | kidney size (2K/BW %) (Inpp5e^Δ/Δ mice; [2]) | proportion of AURKA high cells (Inpp5e^Δ/Δ mice; [2]) | proportion of collecting duct cells with phosphorylated AKT (AKT pT308 high) (Inpp5e^Δ/Δ mice; [2]) | cyst number (mTOR) | cyst size (mTOR)
1 | NC1(c2ccc(-c3nc4ccn5c(=O)[nH]nc5c4cc3-c3ccccc3)cc2)CCC1 [MK2206] | reducing | reducing | reducing | reducing | reduce the severity of PKD in a dose dependent manner | reduces AKT pS473 detection | slowed the acquisition of cysts | increased ciliation | reduced cyst size | reduced the cystic index | significantly smaller than vehicle treated controls | also reduced | reduction in the proportion of collecting duct cells with phosphorylated AKT |  | 
2 | CO[C@H]1C[C@@H]2CC[C@@H](C)[C@@](O)(O2)C(=O)C(=O)N2CCCC[C@H]2C(=O)O[C@H]([C@H](C)C[C@@H]2CC[C@@H](OCCO)[C@H](OC)C2)CC(=O)[C@H](C)/C=C(\C)[C@@H](O)[C@@H](OC)C(=O)[C@H](C)C[C@H](C)/C=C/C=C/C=C/1C [Everolimus] |  |  |  |  |  |  |  |  |  |  |  |  |  | not number | reduction in cyst size
